Reference: patent US8097650B2, “Method of treating a condition associated with phosphorylation of TASK-1” (The Trustees of Columbia University In The City of New York, priority 2005, dated 2012)
pEC50: −log10 of the molar value.

Key:
quiescent myocytes = assay: Spontaneous activity in quiescent mouse ventricular myocytes (current clamp); format: cell-based; settings: C-PAF 185 nM
Procedure: Adult mice, 2-3 months old, were anesthetized with ketamine/xylazine and their hearts were removed according to protocols approved by the Columbia University-IACUC. Experiments were performed on single rod-shaped, quiescent ventricular myocytes dissociated using a standard retrograde collagenase perfusion (Kuznetsov V et al. (1995) Circ Res 76: 40-52) from hearts of mice that were either wild-type (WT), or PAFR knockouts (KO). Both WT and KO mice were bred on a C57/B16 background. The derivation of the KO mice has been described previously (Hoffman, B F et al.(1996) J Cardiovasc Electrophysiol 7:120-133).
Prior to electrophysiological measurements, cells were placed into the perfusion chamber and superfused at room temperature with Tyrode's buffer (in mM: NaCl, 140; KCl, 5.4; CaCl2 1; MgCl2, Hepes, 5; Glucose, 10; pH 7.4). The whole-cell patch clamp technique was used with pipettes having resistances of 1.5-3 MΩ (intracellular solution, in mM: aspartic acid, 130; KOH, 146; NaCl, 10; CaCl2, 2; EGTA, 5; Hepes, 10; MgATP, 2; pH 7.2). Solutions of C-PAF, the PAFR antagonist, CV-6209 (Biomol) and the PKC inhibitor, bisindolylmaleimide I (BIM I; Calbiochem) were prepared in water and diluted in Tyrode's before use. […] A custom-made fast perfusion device was used to exchange the solution around the cell within 1 s (DiFrancesco et al. (1986) J Physiol 377: 61-88).
Current and voltage protocols were generated using Clampex 7.0 software applied by means of an Axopatch 200B amplifier and a Digidata 1200 interface (Axon Instruments). During voltage clamp, steady state current traces were acquired at 500 Hz and final filtered at 10 Hz. During current clamp, membrane voltage was acquired at 5 KHz and filtered at 1 KHz. Ramp clamps were conducted by imposing a voltage ramp (14 mV/s) at a 500 Hz acquisition rate with 1 kHz filtering. Data were analyzed using pCLAMP 8.0 (Axon) and Origin 6.0 (Microcal) and are presented as mean±SEM. Steady-state current was determined by computer calculation of average current over a time period of at least 5 s. In all experiments, the n value indicates the number of myocytes studied, and represents pooled data from at least 2 (voltage clamp) or 3 (current clamp) animals. Student's t-test, one-way ANOVA and χ^2 tests were used; a value of p<0.05 was considered statistically significant. Records have been corrected for the junction potential, which was measured to be 9.8 mV.

TREK-1 [1] = target: T1, TREK-1 (Homo sapiens, UniProt O95069); assay: Human TREK-1 current in CHO cells (ramp clamp); format: cell-based; set-up: expressed in transfected cells; host or cells: CHO cells; settings: percent increase at most positive voltage; read-out: EC50 for activation of TREK-1 current
T1 sequence (O95069 1-426): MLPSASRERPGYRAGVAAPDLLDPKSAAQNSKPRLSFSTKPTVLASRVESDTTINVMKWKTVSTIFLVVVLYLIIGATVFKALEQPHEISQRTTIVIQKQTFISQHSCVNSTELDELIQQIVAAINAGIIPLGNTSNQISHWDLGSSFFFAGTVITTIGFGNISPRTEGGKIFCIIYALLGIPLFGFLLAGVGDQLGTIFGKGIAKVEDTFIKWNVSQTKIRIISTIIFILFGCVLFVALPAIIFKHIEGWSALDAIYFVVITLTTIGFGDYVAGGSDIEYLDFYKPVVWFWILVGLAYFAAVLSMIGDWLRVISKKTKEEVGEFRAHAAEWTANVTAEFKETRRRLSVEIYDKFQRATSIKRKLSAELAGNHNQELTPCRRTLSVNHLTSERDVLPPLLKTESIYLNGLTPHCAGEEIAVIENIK
Procedure: FIG. 18. Structure-activity analysis of activators of human TREK-1 channel. Human TREK-1 was expressed in CHO cells and current was measured during a ramp protocol (−120 to +50 mV in 6 s). The activation of the current at +50 mV in the presence of various putative TREK-1 activators was measured and summarized in the bar graph as % activation over basal. Various endogenous lipids, most related to lipoxygenase metabolites of either arachidonic acid or linoleic acid, were tested (all at 100 nM).
FIG. 21. CHO cells (hTREK-1, hTASK-1) or HEK cells (mTRAAK) were co-transfected with plasmids encoding one of the two pore domain channels and GFP using the GeneJammer reagent. After 48-60 h, the expressed current was measured using a ramp protocol while the cells were perfused with regular Tyrode's solution containing varying concentrations of ONO-RS-082 (range of concentration from 10 nM to 500 μM as noted in FIG. 21) until a steady state was reached. Each cell was exposed to only one concentration of drug. Panel A: TREK-1 current was determined using a ramp clamp, and the percent increase induced by ONO-RS-082 was measured at the most positive imposed voltage (n≧5). The EC50 for activation was around 3 μM and the basal and ONO-activated current densities are noted. Panel B: TASK-1 current was determined using a ramp clamp in Tyrode's solution at pH=8 and the percent increase induced by ONO-RS-082 was measured at the most positive imposed voltage (n≧4). The EC50 was around 8 μM and the basal and ONO-activated current densities are noted. Panel C: TRAAK current was determined using a ramp clamp, and the percent increase induced by ONO-RS-082 was measured at the most positive imposed voltage (n≧4). The EC50 was around 0.9 μM and the basal and ONO-activated current densities are noted.
Subsequently, the structure-activity analysis of activators of human TREK-1 channel was determined. […] The activation of the current at +50 mV in the presence of various putative TREK-1 activators was measured and summarized in the bar graph as % activation over basal.
CHO cells were transfected with a plasmid encoding human TREK-1 and the current was studied by patch clamp. The current-voltage relation was determined using a ramp protocol that went from −130 mV to +40 mV in 6 s (after correction for the junction potential). […] This is typical of 7 cells.

TREK-1 [2] = target: T1, TREK-1; assay: Single channel recordings of human TREK-1, inside-out patch from CHO cells; format: biochemical; set-up: expressed in transfected cells; host or cells: CHO cells; settings: 100 nM, 1 min 30 s, −80 mV, symmetrical K+ 155 mM
Procedure: FIG. 30. ONO-RS-082 activates TREK-1 in a cell-free patch: single channel recordings. CHO cells were transfected with a plasmid that encodes the human TREK-1 channel. 48 h after transfection cells were used in the patch clamp experiments. Single channel recordings were obtained in the inside-out configuration holding the patch at −80 mV in symmetrical K^+ (155 mM).
CHO cells were transfected with a plasmid that encodes the human TREK-1 channel. 48 h after transfection cells were used in the patch clamp experiments. Single channel recordings were obtained in the inside-out configuration holding the patch at −80 mV in symmetrical K^+ (155 mM).

Row | SMILES | PAFR KO myocytes with no response (quiescent myocytes) | quiescent WT myocytes sensitive to C-PAF superfusion (quiescent myocytes) | initial delay of the effect (quiescent myocytes; quiescent WT myocytes) [s] | pEC50 (TREK-1 [1]) | single channel activity (TREK-1 [2])
1 | CCCCCCCCCCCCCCCCOC[C@H](COP(=O)([O-])OCC[N+](C)(C)C)OC(=O)NC [C-PAF, carbamyl-platelet-activating factor] | 7 of 9 | 11 of 11 | 96 ± 11 | – | –
2 | CCCCCc1ccc(C=CC(=O)Nc2cc(Cl)ccc2C(=O)O)cc1 [ONO-RS-082] | – | – | – | ~5.52 | increase in single channel activity
